Source: ChEMBL document CHEMBL5724914, “Linking interpersonal differences in gut microbiota composition and drug biotransformation activity” (2024)

assay: (§1) The drug is tested on Z-021 corresponding to metagenome with ENA study accession number: PRJEB37062 and ENA sample accession number: ERS12561820 for biotransformation under anaerobic condition. The drug concentrations were measured over 9 timepoints collected between 0 and 24 hours of incubation by liquid-chromatography-coupled mass spectrometry (LC–MS); settings: 2 µM
Also: call rule not given here.

Bacterial Biotransformation | Compound
Compound NOT metabolized | CCCCC1=NC2(CCCC2)C(=O)N1Cc1ccc(-c2ccccc2-c2nnn[nH]2)cc1 [IRBESARTAN]
Compound NOT metabolized | CCCc1nn(C)c2c(=O)[nH]c(-c3cc(S(=O)(=O)N4CCN(C)CC4)ccc3OCC)nc12.O=C(O)CC(O)(CC(=O)O)C(=O)O [SILDENAFIL CITRATE]
Compound metabolized | CC(C)NCC(O)COc1ccc(COCCOC(C)C)cc1.CC(C)NCC(O)COc1ccc(COCCOC(C)C)cc1.O=C(O)/C=C/C(=O)O (stereo unspecified) [BISOPROLOL FUMARATE]
Compound metabolized | CC(C)(C)NC[C@H](O)COc1ccccc1C1CCCC1.CC(C)(C)NC[C@H](O)COc1ccccc1C1CCCC1.O=S(=O)(O)O [PENBUTOLOL SULFATE]

assay: as §1, with “Z-008” for “Z-021”, “ERS12561808” for “ERS12561820”; settings: 2 µM

Bacterial Biotransformation | Compound
Compound NOT metabolized | CCCCC1=NC2(CCCC2)C(=O)N1Cc1ccc(-c2ccccc2-c2nnn[nH]2)cc1 [IRBESARTAN]
Compound NOT metabolized | CCCc1nn(C)c2c(=O)[nH]c(-c3cc(S(=O)(=O)N4CCN(C)CC4)ccc3OCC)nc12.O=C(O)CC(O)(CC(=O)O)C(=O)O [SILDENAFIL CITRATE]
Compound NOT metabolized | CC(C)NCC(O)COc1ccc(COCCOC(C)C)cc1.CC(C)NCC(O)COc1ccc(COCCOC(C)C)cc1.O=C(O)/C=C/C(=O)O (stereo unspecified) [BISOPROLOL FUMARATE]
Compound NOT metabolized | CC(C)(C)NC[C@H](O)COc1ccccc1C1CCCC1.CC(C)(C)NC[C@H](O)COc1ccccc1C1CCCC1.O=S(=O)(O)O [PENBUTOLOL SULFATE]

assay: (§2) The drug is tested on Z-003 corresponding to pig gut metagenome with ENA study accession number: PRJEB37062 and ENA sample accession number: ERS12561803 for biotransformation under anaerobic condition. The drug concentrations were measured over 9 timepoints collected between 0 and 24 hours of incubation by liquid-chromatography-coupled mass spectrometry (LC–MS); settings: 2 µM

Bacterial Biotransformation | Compound
Compound metabolized | CCCCC1=NC2(CCCC2)C(=O)N1Cc1ccc(-c2ccccc2-c2nnn[nH]2)cc1 [IRBESARTAN]
Compound NOT metabolized | CCCc1nn(C)c2c(=O)[nH]c(-c3cc(S(=O)(=O)N4CCN(C)CC4)ccc3OCC)nc12.O=C(O)CC(O)(CC(=O)O)C(=O)O [SILDENAFIL CITRATE]
Compound metabolized | CC(C)NCC(O)COc1ccc(COCCOC(C)C)cc1.CC(C)NCC(O)COc1ccc(COCCOC(C)C)cc1.O=C(O)/C=C/C(=O)O (stereo unspecified) [BISOPROLOL FUMARATE]
Compound metabolized | CC(C)(C)NC[C@H](O)COc1ccccc1C1CCCC1.CC(C)(C)NC[C@H](O)COc1ccccc1C1CCCC1.O=S(=O)(O)O [PENBUTOLOL SULFATE]

assay: as §2, with “WLS-370” for “Z-003”, “human” for “pig”, “ERS12561793” for “ERS12561803”; settings: 2 µM

Bacterial Biotransformation | Compound
Compound metabolized | CCCCC1=NC2(CCCC2)C(=O)N1Cc1ccc(-c2ccccc2-c2nnn[nH]2)cc1 [IRBESARTAN]
Compound NOT metabolized | CCCc1nn(C)c2c(=O)[nH]c(-c3cc(S(=O)(=O)N4CCN(C)CC4)ccc3OCC)nc12.O=C(O)CC(O)(CC(=O)O)C(=O)O [SILDENAFIL CITRATE]
Compound NOT metabolized | CC(C)NCC(O)COc1ccc(COCCOC(C)C)cc1.CC(C)NCC(O)COc1ccc(COCCOC(C)C)cc1.O=C(O)/C=C/C(=O)O (stereo unspecified) [BISOPROLOL FUMARATE]
Compound metabolized | CC(C)(C)NC[C@H](O)COc1ccccc1C1CCCC1.CC(C)(C)NC[C@H](O)COc1ccccc1C1CCCC1.O=S(=O)(O)O [PENBUTOLOL SULFATE]

assay: as §2, with “WLS-090” for “Z-003”, “human” for “pig”, “ERS12561753” for “ERS12561803”; settings: 2 µM

Bacterial Biotransformation | Compound
Compound metabolized | CCCCC1=NC2(CCCC2)C(=O)N1Cc1ccc(-c2ccccc2-c2nnn[nH]2)cc1 [IRBESARTAN]
Compound metabolized | CCCc1nn(C)c2c(=O)[nH]c(-c3cc(S(=O)(=O)N4CCN(C)CC4)ccc3OCC)nc12.O=C(O)CC(O)(CC(=O)O)C(=O)O [SILDENAFIL CITRATE]
Compound metabolized | CC(C)NCC(O)COc1ccc(COCCOC(C)C)cc1.CC(C)NCC(O)COc1ccc(COCCOC(C)C)cc1.O=C(O)/C=C/C(=O)O (stereo unspecified) [BISOPROLOL FUMARATE]
Compound metabolized | CC(C)(C)NC[C@H](O)COc1ccccc1C1CCCC1.CC(C)(C)NC[C@H](O)COc1ccccc1C1CCCC1.O=S(=O)(O)O [PENBUTOLOL SULFATE]

assay: as §2, with “WLS-077” for “Z-003”, “human” for “pig”, “ERS12561750” for “ERS12561803”; settings: 2 µM

Bacterial Biotransformation | Compound
Compound metabolized | CCCCC1=NC2(CCCC2)C(=O)N1Cc1ccc(-c2ccccc2-c2nnn[nH]2)cc1 [IRBESARTAN]
Compound NOT metabolized | CCCc1nn(C)c2c(=O)[nH]c(-c3cc(S(=O)(=O)N4CCN(C)CC4)ccc3OCC)nc12.O=C(O)CC(O)(CC(=O)O)C(=O)O [SILDENAFIL CITRATE]
Compound NOT metabolized | CC(C)NCC(O)COc1ccc(COCCOC(C)C)cc1.CC(C)NCC(O)COc1ccc(COCCOC(C)C)cc1.O=C(O)/C=C/C(=O)O (stereo unspecified) [BISOPROLOL FUMARATE]
Compound metabolized | CC(C)(C)NC[C@H](O)COc1ccccc1C1CCCC1.CC(C)(C)NC[C@H](O)COc1ccccc1C1CCCC1.O=S(=O)(O)O [PENBUTOLOL SULFATE]

assay: as §2, with “WLS-073” for “Z-003”, “human” for “pig”, “ERS12561749” for “ERS12561803”; settings: 2 µM

Bacterial Biotransformation | Compound
Compound metabolized | CCCCC1=NC2(CCCC2)C(=O)N1Cc1ccc(-c2ccccc2-c2nnn[nH]2)cc1 [IRBESARTAN]
Compound NOT metabolized | CCCc1nn(C)c2c(=O)[nH]c(-c3cc(S(=O)(=O)N4CCN(C)CC4)ccc3OCC)nc12.O=C(O)CC(O)(CC(=O)O)C(=O)O [SILDENAFIL CITRATE]
Compound NOT metabolized | CC(C)NCC(O)COc1ccc(COCCOC(C)C)cc1.CC(C)NCC(O)COc1ccc(COCCOC(C)C)cc1.O=C(O)/C=C/C(=O)O (stereo unspecified) [BISOPROLOL FUMARATE]
Compound metabolized | CC(C)(C)NC[C@H](O)COc1ccccc1C1CCCC1.CC(C)(C)NC[C@H](O)COc1ccccc1C1CCCC1.O=S(=O)(O)O [PENBUTOLOL SULFATE]

settings: human gut metagenome, 24 h, 2 µM

Bacterial Biotransformation | Compound
Compound metabolized | CCCCC1=NC2(CCCC2)C(=O)N1Cc1ccc(-c2ccccc2-c2nnn[nH]2)cc1 [IRBESARTAN]
Compound NOT metabolized | CCCc1nn(C)c2c(=O)[nH]c(-c3cc(S(=O)(=O)N4CCN(C)CC4)ccc3OCC)nc12.O=C(O)CC(O)(CC(=O)O)C(=O)O [SILDENAFIL CITRATE]
Compound NOT metabolized | CC(C)NCC(O)COc1ccc(COCCOC(C)C)cc1.CC(C)NCC(O)COc1ccc(COCCOC(C)C)cc1.O=C(O)/C=C/C(=O)O (stereo unspecified) [BISOPROLOL FUMARATE]
Compound metabolized | CC(C)(C)NC[C@H](O)COc1ccccc1C1CCCC1.CC(C)(C)NC[C@H](O)COc1ccccc1C1CCCC1.O=S(=O)(O)O [PENBUTOLOL SULFATE]

settings: human gut metagenome, 24 h, 2 µM; remark: another data set of the same source

Bacterial Biotransformation | Compound
Compound metabolized | CCCCC1=NC2(CCCC2)C(=O)N1Cc1ccc(-c2ccccc2-c2nnn[nH]2)cc1 [IRBESARTAN]
Compound NOT metabolized | CCCc1nn(C)c2c(=O)[nH]c(-c3cc(S(=O)(=O)N4CCN(C)CC4)ccc3OCC)nc12.O=C(O)CC(O)(CC(=O)O)C(=O)O [SILDENAFIL CITRATE]
Compound NOT metabolized | CC(C)NCC(O)COc1ccc(COCCOC(C)C)cc1.CC(C)NCC(O)COc1ccc(COCCOC(C)C)cc1.O=C(O)/C=C/C(=O)O (stereo unspecified) [BISOPROLOL FUMARATE]
Compound NOT metabolized | CC(C)(C)NC[C@H](O)COc1ccccc1C1CCCC1.CC(C)(C)NC[C@H](O)COc1ccccc1C1CCCC1.O=S(=O)(O)O [PENBUTOLOL SULFATE]
